These results are taken from ChEMBL document CHEMBL4190238, “Discovery of potent IDO1 inhibitors derived from tryptophan using scaffold-hopping and structure-based design approaches” (Eur J Med Chem, 2017).

In data set [1] the test system is HeLa. The data set is described as follows: Cytotoxicity against human HeLa cells assessed as reduction in cell viability at 10 to 30 uM after 24 hrs by MTT assay. It is filed as cell-based. For orientation: Formazan colour is commonly taken as a measure of viable cells.
Data set [2] addresses T1, Indoleamine 2,3-dioxygenase 1 (Homo sapiens, UniProt P14902). The data set is described as follows: Inhibition of IFNgamma-induced IDO1 in human HeLa cells using L-tryptophan as substrate after 24 hrs. It is filed as cell-based.
Target sequence in this assay (P14902 whole entry): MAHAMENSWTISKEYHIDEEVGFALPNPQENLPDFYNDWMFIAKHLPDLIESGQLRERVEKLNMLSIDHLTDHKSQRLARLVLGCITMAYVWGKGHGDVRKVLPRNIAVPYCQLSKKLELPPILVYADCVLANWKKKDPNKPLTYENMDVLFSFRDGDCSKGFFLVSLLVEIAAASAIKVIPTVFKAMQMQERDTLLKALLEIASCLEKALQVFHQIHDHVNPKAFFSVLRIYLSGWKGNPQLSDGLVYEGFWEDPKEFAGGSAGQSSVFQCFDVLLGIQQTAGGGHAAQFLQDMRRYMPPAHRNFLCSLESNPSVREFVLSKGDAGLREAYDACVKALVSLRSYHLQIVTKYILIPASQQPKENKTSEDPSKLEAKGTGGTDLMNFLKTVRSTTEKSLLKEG
Data set [3] concerns the target Indoleamine 2,3-dioxygenase 1 (Mus musculus) (UniProt P28776). The data set is described as follows: Inhibition of IDO1 in mouse B16F1 cells co-cultured with Balb/c mouse T-cells assessed as reversal of IDO1-mediated suppression of T-cell proliferation at 1.5 uM after 48 hrs by MTT assay. The class given is cell-based.
Data set [4] shares this target. As to the kind of experiment: Inhibition of IDO1 in mouse B16F1 cells co-cultured with Balb/c mouse T-cells assessed as increase in IFN-gamma level at 1.5 uM after 48 hrs by ELISA. The class given is cell-based. A general note: In an ELISA, binding on a coated surface is turned into a signal by an enzyme label.
Data set [5] has the same target. The data set is described as follows: Inhibition of IDO1 in mouse B16F1 cells co-cultured with Balb/c mouse T-cells assessed as increase in IFN-gamma level at 18 uM after 48 hrs by ELISA. The class given is cell-based.
Data set [6] concerns HeLa. The data set is described as follows: Inhibition of IFNgamma-induced IDO1 protein expression in human HeLa cells at IDO1 inhibitory IC50 after 24 hrs by Western blot method. The class given is functional, cell-based. In general terms: A western blot detects proteins with antibodies after separation by electrophoresis.
The target in data set [7] is Indoleamine 2,3-dioxygenase 1 (Mus musculus) (UniProt P28776). The data set is described as follows: Inhibition of IDO1 in mouse B16F1 cells co-cultured with Balb/c mouse T-cells assessed as decrease in differentiation of Treg cells by measuring CD4+/CD25+/FOXP3 cells at 18 uM by FITC/APC/PE staining based flow cytometry (reference value: 11.7%). The arrangement: scale not given: the % may be the effect or the level left. It is filed as cell-based.
Chain of Indoleamine 2,3-dioxygenase 1 (Mus musculus) (P28776 whole entry, looked up): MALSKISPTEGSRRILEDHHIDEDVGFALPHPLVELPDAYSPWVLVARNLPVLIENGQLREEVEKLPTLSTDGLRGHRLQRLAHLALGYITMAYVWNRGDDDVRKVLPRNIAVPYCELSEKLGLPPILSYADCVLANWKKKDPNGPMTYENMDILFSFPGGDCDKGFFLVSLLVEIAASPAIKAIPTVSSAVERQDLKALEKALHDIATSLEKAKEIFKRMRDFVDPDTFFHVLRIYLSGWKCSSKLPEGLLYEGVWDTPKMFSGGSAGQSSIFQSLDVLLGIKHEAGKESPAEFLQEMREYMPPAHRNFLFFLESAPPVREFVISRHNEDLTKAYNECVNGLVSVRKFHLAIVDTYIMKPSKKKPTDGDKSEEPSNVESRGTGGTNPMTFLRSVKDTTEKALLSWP

Data set [8] shares this target. As to the kind of experiment: Inhibition of IDO1 in mouse B16F1 cells co-cultured with Balb/c mouse T-cells assessed as reversal of IDO1-mediated suppression of T-cell proliferation at 18 uM after 48 hrs by MTT assay. The class given is cell-based.
The target is the same in data set [9]. The data set is described as follows: Inhibition of IDO1 in mouse B16F1 cells co-cultured with Balb/c mouse T-cells assessed as increase in IFN-gamma level at 30 uM after 48 hrs by ELISA. The class given is cell-based.
The target is the same in data set [10]. The data set is described as follows: Inhibition of IDO1 in mouse B16F1 cells co-cultured with Balb/c mouse T-cells assessed as decrease in differentiation of Treg cells by measuring CD4+/CD25+/FOXP3 cells at 30 uM by FITC/APC/PE staining based flow cytometry (reference value: 11.7%). The class given is cell-based. The arrangement: scale not given: the % may be the effect or the level left.

For data set [11], the target named is T1, Indoleamine 2,3-dioxygenase 1. The data set is described as follows: Binding affinity to recombinant human IDO1 assessed as interaction with ferrous ion in enzyme active site by measuring absorbance maxima for ferrous heme at 2 mM by UV-Visible spectral analysis (reference value: 424 nanometer).
Target sequence in this assay (P14902 whole entry, looked up): as the sequence (P14902 whole entry) above
Data set [12] deals with Indoleamine 2,3-dioxygenase 1 (Mus musculus) (UniProt P28776). As to the kind of experiment: Inhibition of IDO1 in mouse B16F1 cells co-cultured with Balb/c mouse T-cells assessed as reversal of IDO1-mediated suppression of T-cell proliferation at 30 uM after 48 hrs by MTT assay. The class given is cell-based.

The structures appear in SMILES notation. The source made the active and inactive calls. The calls are words filed in the database; no cut-off is given here.

Turning to `O=c1oc2ccc(F)cc2n1Cc1cccc(F)c1`, in the data set on HeLa [1], the Activity result is “Non-Toxic”. In data set [2], this compound displayed an IC50 of 28.5 µM.

For `O=c1[nH]c2ccccc2n1CC(O)c1ccc(F)cc1` (stereo not drawn), the Activity entry in the data set with HeLa [1] is given as “Non-Toxic”. In [2], this compound came in with an IC50 of 99.9 µM.

Regarding `O=c1oc2ccc(Cl)cc2n1CC(O)c1ccc(F)cc1` (stereo not drawn), the Activity result in the data set on HeLa [1] is “Non-Toxic”. In addition, the IC50 in [2] amounted to 10.2 µM.

`O=c1oc2ccc(Cl)cc2n1CCc1ccccc1`: the Activity entry in the data set on HeLa [1] was “Non-Toxic”. Besides, the IC50 in data set [2] is 17.9 µM.

Turning to `O=c1oc2ccc(F)cc2n1Cc1ccc(Cl)cc1`, the Activity entry with HeLa [1] is “Non-Toxic”. This compound also showed an IC50 in data set [2] of 80.8 µM.

Regarding `O=c1oc2ccc(Cl)cc2n1CC(O)c1cccc(Cl)c1` (stereo not drawn), in the data set with HeLa [1], the Activity entry is listed as “Non-Toxic”. In data set [2], this compound showed an IC50 of 60.9 µM.

Consider `O=c1oc2ccccc2n1CCc1ccccc1`, for which the Activity entry with HeLa [1] was “Non-Toxic”. In [2], the IC50 is more than 100 µM.

For the compound `COc1ccc(CNC(=O)n2c(=O)oc3ccccc32)cc1`, the Activity entry in the data set on HeLa [1] is “Non-Toxic”. The IC50 in data set [2] was determined as 31.8 µM.

As to `OC(CC1c2ccccc2-c2cncn21)C1CCCCC1` (racemic), the inhibition result in [3] and in data set [4] was “Active” throughout.

`O=C(Cn1c(=O)oc2ccc(Cl)cc21)c1cccc(Cl)c1`: in the data set with HeLa [1], the Activity entry was “Non-Toxic”. The same compound had a half-maximal inhibitory concentration (IC50) in data set [2] of 76.6 µM.

As for `O=C(Cn1c(=O)oc2ccccc21)c1ccc(Cl)cc1`, the Activity result with HeLa [1] is “Non-Toxic”. For the same compound, the IC50 in data set [2] came out at 38.6 µM.

Regarding `COc1ccc(NC(=O)n2c(=O)oc3ccc(Cl)cc32)cc1`, the Activity entry with HeLa [1] is given as “Non-Toxic”. The IC50 in [2] was more than 100 µM.

As to `O=c1oc2ccccc2n1CC(O)c1ccc(F)cc1` (stereo not drawn), in the data set on HeLa [1], the Activity entry is reported as “Non-Toxic”. This compound registered a 50% inhibitory concentration (IC50) in data set [2] of 49.3 µM.

`O=C(Cn1c(=O)oc2ccc(Cl)cc21)c1ccc(F)cc1`: the Activity result in the data set with HeLa [1] is recorded as “Non-Toxic”. Moreover, the midpoint of inhibition in data set [2], the IC50, lay at 20.7 µM.

Take `O=C(Cn1c(=O)oc2ccccc21)c1cccc(Cl)c1`: the Activity result in the data set on HeLa [1] was “Non-Toxic”. In [2], this compound came in with an IC50 of 49.3 µM.

For the compound `O=c1oc2ccccc2n1CC(O)c1cccc(Cl)c1` (stereo not drawn), the Activity entry in the data set on HeLa [1] is reported as “Non-Toxic”. This compound displayed an IC50 in [2] of 80.6 µM.

On to `O=C(c1ccccc1)n1c(=O)oc2ccccc21`, for which the Activity entry with HeLa [1] is “Non-Toxic”. For the same compound, the IC50 in data set [2] was 90.5 µM.

In the case of `O=c1oc2ccccc2n1Cc1ccc(Cl)cc1`, in the data set with HeLa [1], the Activity result is reported as “Non-Toxic”. In addition, the IC50 in data set [2] is 35 µM.

With `O=C(Cc1ccc(F)cc1)n1c(=O)oc2ccc(Cl)cc21`, the results for the Activity result (with HeLa [1]; in data set [7]) were “Non-Toxic” and 7.1%, respectively. In addition, the inhibition entry in data set [5] and in [8] was “Active” throughout. The inhibition result with HeLa [6] is “inactive”. This compound also yielded an IC50 in data set [2] of 6.4 µM.

As for `O=C(Cc1ccc(F)cc1)n1c(=O)oc2ccccc21`, in the data set with HeLa [1], the Activity result is recorded as “Non-Toxic”. Moreover, the IC50 in data set [2] was more than 100 µM.

Consider `Nc1ccc2oc(=O)n(Cc3cccc(F)c3)c2c1`, for which, in the data set with HeLa [1], the Activity result is on record as “Non-Toxic”. Further, in data set [2], the IC50 was more than 100 µM.

For `Nc1nc2ccccc2n1C(=O)Cc1ccc(F)cc1`, the Activity result with HeLa [1] is reported as “Non-Toxic”. Besides, half-maximal inhibition in [2] (IC50) required 22.7 µM.

Turning to `O=C(Cn1c(=O)oc2ccc(Cl)cc21)c1ccc(Cl)cc1`, in the data set on HeLa [1], the Activity result was “Non-Toxic”. Besides, in [2], inhibition was half-maximal at 24.9 µM (IC50).

Regarding `O=c1oc2ccc([N+](=O)[O-])cc2n1Cc1cccc(F)c1`, in the data set on HeLa [1], the Activity entry is “Non-Toxic”. In data set [2], this compound displayed an IC50 of 99.8 µM.

On to `O=c1oc2ccccc2n1CC(O)c1ccc(Cl)cc1` (stereo not drawn), for which, in the data set on HeLa [1], the Activity entry is reported as “Non-Toxic”. Further, in data set [2], the IC50 was determined as 50.8 µM.

Regarding `O=c1oc2ccccc2n1Cc1cccc(F)c1`, the Activity result in the data set with HeLa [1] is recorded as “Non-Toxic”. The IC50 in data set [2] came out at 30.8 µM.

In the case of `COc1cccc(CNC(=O)n2c(=O)oc3ccc(Cl)cc32)c1`, the Activity result in the data set with HeLa [1] is “Non-Toxic”. This compound registered an IC50 in data set [2] of 14.6 µM.

Regarding `O=c1oc2ccc(Cl)cc2n1CC(O)c1ccc(Cl)cc1` (stereo not drawn), the Activity entry in the data set on HeLa [1] is on record as “Non-Toxic”. For the same compound, half-maximal inhibition in data set [2] (IC50) was put at 62.7 µM.

Regarding `O=C(Cn1c(=O)oc2ccccc21)c1ccc(F)cc1`, the Activity entry in the data set with HeLa [1] is “Non-Toxic”. The same compound displayed an IC50 in data set [2] of 53.1 µM.

As to `O=c1oc2ccc([N+](=O)[O-])cc2n1Cc1ccc(Cl)cc1`, the Activity result with HeLa [1] is “Non-Toxic”. This compound came in with an IC50 in [2] of 99.3 µM.

`O=c1oc2ccc(Cl)cc2n1Cc1cccc(F)c1`: the inhibition result in data set [9] and in [12] was “Active” throughout. The Activity entry with HeLa [1] was “Non-Toxic”; in data set [10], 6%; in data set [11], 418 nm. For the same compound, the inhibition entry in the data set on HeLa [6] was “inactive”. The compound further registered an IC50 in data set [2] of 9.75 µM.

Turning to `O=c1oc2ccc(Cl)cc2n1Cc1ccc(Cl)cc1`, the Activity result in the data set with HeLa [1] is “Non-Toxic”; in [7], 8.7%; in data set [11], 418 nm. Also, the inhibition entry in data set [5] is “Active”. Besides, the inhibition entry with HeLa [6] was “inactive”. In [2], this compound yielded an IC50 of 6.08 µM. Also, the inhibition in data set [8] worked out at 52%.

Broadly, the IC50 is the concentration that gives 50% inhibition. As usually defined, the inhibition is the percentage by which the read-out fell short of the control.
